Assays:
Histone deacetylase 2 = Histone deacetylase 2 (Homo sapiens, UniProt Q92769); assay: Inhibition of recombinant human HDAC2 after 60 mins by fluorescence assay
[1] = target: T1, Polyamine deacetylase HDAC10 (Homo sapiens, UniProt Q969S8); assay: Inhibition of recombinant human HDAC10 after 60 mins by fluorescence assay
T1 sequence (Q969S8 whole entry): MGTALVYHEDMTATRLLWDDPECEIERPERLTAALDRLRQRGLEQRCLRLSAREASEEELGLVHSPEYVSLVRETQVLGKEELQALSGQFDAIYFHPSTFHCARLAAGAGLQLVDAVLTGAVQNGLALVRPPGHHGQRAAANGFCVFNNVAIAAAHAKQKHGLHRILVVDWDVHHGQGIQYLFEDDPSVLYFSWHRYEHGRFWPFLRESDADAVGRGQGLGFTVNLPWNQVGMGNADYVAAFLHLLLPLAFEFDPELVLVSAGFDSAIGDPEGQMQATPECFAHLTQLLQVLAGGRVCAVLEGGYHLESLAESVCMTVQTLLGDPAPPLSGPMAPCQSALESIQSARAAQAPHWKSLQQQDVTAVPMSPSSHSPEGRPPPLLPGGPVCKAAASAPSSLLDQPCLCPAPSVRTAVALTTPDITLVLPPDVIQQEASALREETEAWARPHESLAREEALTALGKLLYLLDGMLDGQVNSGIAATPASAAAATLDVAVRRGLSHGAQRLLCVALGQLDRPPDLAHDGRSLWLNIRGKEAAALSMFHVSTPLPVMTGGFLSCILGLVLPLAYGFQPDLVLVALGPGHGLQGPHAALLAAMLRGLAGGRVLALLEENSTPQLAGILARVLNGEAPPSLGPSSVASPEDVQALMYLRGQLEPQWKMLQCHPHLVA

Histone deacetylase 7 = target: T2, Histone deacetylase 7 (Homo sapiens, UniProt Q8WUI4); assay: Inhibition of recombinant human HDAC7 after 60 mins by fluorescence assay
T2 sequence (Q8WUI4 whole entry): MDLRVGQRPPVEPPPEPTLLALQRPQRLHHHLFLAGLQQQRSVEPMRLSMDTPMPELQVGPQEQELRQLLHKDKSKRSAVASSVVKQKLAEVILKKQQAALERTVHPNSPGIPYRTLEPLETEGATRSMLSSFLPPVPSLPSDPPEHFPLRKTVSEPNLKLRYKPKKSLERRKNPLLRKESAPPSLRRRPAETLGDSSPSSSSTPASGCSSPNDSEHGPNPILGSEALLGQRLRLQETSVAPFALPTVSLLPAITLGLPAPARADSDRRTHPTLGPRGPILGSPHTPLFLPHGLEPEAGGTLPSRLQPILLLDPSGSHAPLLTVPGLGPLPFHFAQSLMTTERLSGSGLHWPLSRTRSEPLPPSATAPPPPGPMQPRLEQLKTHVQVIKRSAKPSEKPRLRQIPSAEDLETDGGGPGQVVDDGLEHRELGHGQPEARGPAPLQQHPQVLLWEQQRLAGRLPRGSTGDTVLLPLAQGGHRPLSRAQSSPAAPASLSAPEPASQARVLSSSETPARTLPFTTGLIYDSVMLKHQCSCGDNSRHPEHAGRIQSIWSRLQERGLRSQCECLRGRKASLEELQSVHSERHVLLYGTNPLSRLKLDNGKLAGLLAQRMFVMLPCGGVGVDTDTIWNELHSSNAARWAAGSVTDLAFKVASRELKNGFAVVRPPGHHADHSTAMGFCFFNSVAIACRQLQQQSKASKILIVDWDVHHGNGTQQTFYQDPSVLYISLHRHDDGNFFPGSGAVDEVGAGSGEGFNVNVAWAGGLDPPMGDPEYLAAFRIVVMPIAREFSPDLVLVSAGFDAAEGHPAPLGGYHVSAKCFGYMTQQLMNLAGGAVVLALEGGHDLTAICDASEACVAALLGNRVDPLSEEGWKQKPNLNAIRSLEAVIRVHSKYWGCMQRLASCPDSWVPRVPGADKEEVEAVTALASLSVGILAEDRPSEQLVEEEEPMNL

Histone deacetylase 11 = target: T3, Histone deacetylase 11 (Homo sapiens, UniProt Q96DB2); assay: Inhibition of recombinant human HDAC11 after 60 mins by fluorescence assay
T3 sequence (Q96DB2 whole entry): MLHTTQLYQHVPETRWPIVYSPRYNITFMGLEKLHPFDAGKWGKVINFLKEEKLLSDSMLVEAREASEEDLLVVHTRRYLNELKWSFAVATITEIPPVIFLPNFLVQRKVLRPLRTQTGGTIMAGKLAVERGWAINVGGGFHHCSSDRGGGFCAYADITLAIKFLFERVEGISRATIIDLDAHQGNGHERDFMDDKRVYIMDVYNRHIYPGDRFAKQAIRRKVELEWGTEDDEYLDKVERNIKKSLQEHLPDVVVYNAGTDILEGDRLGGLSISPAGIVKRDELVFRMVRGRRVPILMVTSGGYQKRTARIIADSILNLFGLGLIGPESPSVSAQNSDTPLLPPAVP

Histone deacetylase 3 = Histone deacetylase 3 (Homo sapiens, UniProt O15379); assay: Inhibition of recombinant human HDAC3 after 60 mins by fluorescence assay
DU-145 = assay: Antiproliferative activity against human DU145 cells after 72 hrs by CCK8 assay; type: functional; settings: Homo sapiens, DU-145, 72 h
[2] = Antiproliferative activity against human HLF cells after 72 hrs by CCK8 assay; type: cell-based
[3] = Antiproliferative activity against human MOLT4 cells after 72 hrs by CCK8 assay; type: functional, MOLT-4; settings: Homo sapiens, MOLT-4, 72 h
U-937 = assay: Antiproliferative activity against human U937 cells after 72 hrs by CCK8 assay; type: functional; settings: Homo sapiens, U-937, 72 h
Histone deacetylase 9 = Histone deacetylase 9 (Homo sapiens, UniProt Q9UKV0); assay: Inhibition of recombinant human HDAC9 after 60 mins by fluorescence assay
Histone deacetylase 1 = Histone deacetylase 1 (Homo sapiens, UniProt Q13547); assay: Inhibition of recombinant human HDAC1 after 60 mins by fluorescence assay
in vitro = settings: human, DU145 cells and HLF cells
Description: Selectivity ratio of GI50 for human DU145 cells to GI50 for human HLF cells

[4] = Antiproliferative activity against human WI38 cells after 72 hrs by CCK8 assay; type: cell-based, WI-38
Histone deacetylase 5 = Histone deacetylase 5 (Homo sapiens, UniProt Q9UQL6); assay: Inhibition of recombinant human HDAC5 after 60 mins by fluorescence assay
Histone deacetylase 8 = target: T4, Histone deacetylase 8 (Homo sapiens, UniProt Q9BY41); assay: Inhibition of recombinant human HDAC8 after 60 mins by fluorescence assay
T4 sequence (Q9BY41 whole entry): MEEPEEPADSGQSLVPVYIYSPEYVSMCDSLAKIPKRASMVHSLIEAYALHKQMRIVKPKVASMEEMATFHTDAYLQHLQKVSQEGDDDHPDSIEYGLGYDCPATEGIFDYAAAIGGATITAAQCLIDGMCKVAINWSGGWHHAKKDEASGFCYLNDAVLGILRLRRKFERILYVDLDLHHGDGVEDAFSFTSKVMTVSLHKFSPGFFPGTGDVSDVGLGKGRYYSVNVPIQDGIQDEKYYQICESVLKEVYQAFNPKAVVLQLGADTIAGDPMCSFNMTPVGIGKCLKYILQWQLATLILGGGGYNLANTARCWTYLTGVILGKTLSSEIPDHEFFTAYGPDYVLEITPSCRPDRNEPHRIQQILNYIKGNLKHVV

Sequence of Histone deacetylase 1 (Q13547 whole entry): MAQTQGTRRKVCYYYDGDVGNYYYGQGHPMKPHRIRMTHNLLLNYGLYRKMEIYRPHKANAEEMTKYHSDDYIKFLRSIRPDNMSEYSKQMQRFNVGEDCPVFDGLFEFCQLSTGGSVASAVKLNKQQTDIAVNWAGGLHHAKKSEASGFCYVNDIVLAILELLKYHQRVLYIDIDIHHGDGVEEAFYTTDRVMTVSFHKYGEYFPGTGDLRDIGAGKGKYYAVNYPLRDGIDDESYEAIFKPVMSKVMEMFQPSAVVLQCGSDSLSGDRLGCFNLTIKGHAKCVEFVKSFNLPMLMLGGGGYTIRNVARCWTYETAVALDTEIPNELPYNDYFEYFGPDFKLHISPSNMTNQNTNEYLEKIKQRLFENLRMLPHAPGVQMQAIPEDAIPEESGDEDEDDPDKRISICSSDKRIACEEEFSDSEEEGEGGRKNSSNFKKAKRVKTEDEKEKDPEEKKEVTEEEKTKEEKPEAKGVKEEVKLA
Sequence of Histone deacetylase 3 (O15379 whole entry): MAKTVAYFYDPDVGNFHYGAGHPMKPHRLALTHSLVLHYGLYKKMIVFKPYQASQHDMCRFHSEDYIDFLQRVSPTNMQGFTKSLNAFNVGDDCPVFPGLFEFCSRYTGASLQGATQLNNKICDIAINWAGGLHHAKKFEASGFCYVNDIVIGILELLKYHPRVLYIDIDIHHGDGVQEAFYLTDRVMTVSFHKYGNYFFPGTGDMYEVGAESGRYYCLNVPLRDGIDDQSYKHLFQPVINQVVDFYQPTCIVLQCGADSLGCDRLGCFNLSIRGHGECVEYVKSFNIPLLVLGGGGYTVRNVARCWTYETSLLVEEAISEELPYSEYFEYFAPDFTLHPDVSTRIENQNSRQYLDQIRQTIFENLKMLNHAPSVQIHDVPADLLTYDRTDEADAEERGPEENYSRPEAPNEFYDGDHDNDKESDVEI
Sequence of Histone deacetylase 2 (Q92769 whole entry): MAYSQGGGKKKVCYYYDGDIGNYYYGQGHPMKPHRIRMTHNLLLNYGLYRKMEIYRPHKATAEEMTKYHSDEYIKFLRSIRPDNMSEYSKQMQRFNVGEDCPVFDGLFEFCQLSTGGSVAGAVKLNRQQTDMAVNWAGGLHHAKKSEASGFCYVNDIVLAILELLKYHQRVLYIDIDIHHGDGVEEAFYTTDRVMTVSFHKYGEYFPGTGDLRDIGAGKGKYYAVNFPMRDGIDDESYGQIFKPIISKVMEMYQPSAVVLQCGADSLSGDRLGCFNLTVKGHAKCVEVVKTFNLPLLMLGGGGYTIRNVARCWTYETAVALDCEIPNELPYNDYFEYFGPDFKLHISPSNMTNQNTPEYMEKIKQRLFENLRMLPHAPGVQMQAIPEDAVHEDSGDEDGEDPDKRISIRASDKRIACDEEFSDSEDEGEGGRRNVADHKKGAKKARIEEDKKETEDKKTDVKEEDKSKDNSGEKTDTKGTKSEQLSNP
Sequence of Histone deacetylase 9 (Q9UKV0 whole entry): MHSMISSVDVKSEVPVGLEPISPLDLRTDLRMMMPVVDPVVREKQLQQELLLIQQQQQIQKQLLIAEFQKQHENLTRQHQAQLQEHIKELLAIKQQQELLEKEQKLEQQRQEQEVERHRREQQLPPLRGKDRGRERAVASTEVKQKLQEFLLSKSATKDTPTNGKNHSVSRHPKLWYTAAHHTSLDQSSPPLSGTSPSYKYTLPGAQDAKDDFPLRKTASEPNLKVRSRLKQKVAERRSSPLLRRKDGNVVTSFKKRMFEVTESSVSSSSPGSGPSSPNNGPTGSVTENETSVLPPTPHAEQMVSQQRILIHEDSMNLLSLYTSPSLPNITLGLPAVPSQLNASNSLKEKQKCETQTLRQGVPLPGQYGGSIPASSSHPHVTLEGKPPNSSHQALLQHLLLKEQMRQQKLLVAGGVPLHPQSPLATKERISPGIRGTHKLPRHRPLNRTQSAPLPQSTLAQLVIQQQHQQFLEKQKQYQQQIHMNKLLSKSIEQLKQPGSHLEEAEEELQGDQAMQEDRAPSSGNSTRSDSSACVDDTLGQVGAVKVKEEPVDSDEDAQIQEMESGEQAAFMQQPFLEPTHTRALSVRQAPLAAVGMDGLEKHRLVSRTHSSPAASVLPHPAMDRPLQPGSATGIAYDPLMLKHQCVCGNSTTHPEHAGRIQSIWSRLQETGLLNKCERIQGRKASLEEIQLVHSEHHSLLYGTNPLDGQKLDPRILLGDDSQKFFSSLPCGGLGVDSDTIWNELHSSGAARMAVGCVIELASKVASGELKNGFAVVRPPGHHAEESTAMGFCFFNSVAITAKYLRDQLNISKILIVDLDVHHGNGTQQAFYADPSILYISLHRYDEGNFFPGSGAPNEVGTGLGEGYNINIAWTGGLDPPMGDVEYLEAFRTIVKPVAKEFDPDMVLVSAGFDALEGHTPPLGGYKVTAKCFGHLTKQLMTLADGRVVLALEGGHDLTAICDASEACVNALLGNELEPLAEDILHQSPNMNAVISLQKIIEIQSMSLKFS
Sequence of Histone deacetylase 5 (Q9UQL6 whole entry): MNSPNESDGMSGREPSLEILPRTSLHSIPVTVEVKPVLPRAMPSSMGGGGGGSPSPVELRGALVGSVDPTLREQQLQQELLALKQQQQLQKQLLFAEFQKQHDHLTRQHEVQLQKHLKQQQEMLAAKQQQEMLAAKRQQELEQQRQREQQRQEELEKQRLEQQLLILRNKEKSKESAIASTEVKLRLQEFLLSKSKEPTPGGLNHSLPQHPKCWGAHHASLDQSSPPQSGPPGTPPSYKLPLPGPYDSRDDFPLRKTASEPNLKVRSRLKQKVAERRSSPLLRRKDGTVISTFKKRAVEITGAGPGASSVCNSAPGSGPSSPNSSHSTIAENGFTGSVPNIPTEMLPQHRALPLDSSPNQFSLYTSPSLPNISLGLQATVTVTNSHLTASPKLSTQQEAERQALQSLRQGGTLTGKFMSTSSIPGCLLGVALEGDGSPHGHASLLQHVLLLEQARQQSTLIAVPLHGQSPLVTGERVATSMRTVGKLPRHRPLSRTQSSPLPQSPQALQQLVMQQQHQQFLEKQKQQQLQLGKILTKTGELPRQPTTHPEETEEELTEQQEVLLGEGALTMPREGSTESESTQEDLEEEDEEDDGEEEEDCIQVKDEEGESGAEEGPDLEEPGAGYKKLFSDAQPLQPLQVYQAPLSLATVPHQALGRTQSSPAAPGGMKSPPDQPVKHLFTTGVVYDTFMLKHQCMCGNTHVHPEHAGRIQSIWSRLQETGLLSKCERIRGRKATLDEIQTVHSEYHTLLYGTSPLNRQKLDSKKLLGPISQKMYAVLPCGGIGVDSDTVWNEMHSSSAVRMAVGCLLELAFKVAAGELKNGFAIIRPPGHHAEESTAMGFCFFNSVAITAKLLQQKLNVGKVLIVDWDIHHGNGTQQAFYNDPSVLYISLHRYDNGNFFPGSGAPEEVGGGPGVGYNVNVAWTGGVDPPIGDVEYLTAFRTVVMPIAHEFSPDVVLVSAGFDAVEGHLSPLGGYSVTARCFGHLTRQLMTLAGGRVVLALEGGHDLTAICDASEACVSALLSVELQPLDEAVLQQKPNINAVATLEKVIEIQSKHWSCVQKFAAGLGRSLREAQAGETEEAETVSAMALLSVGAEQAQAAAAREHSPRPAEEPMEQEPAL

Compound: C/C=C1\NC(=O)c2csc(n2)[C@@H](C(C)C)NC(=O)C[C@@H](/C=C/CCSC(=O)CCCCCCC)OC(=O)[C@H](C(C)C)NC1=O
- IC50 (Histone deacetylase 2): 2740 nM
- IC50 [1]: 395 nM
- IC50 (Histone deacetylase 7): > 10000 nM
- IC50 (Histone deacetylase 11): > 10000 nM
- IC50 (Histone deacetylase 3): 3150 nM
- GI50 (DU-145): 20.5 nM
- GI50 at 72 h [2]: 710 nM
- GI50 [3]: 22 nM
- GI50 (U-937): 31.7 nM
- IC50 (Histone deacetylase 9): > 10000 nM
- IC50 (Histone deacetylase 1): 165 nM
- selectivity ratio (in vitro): 0.029
- GI50 at 72 h [4]: 561 nM
- IC50 (Histone deacetylase 5): > 10000 nM
- IC50 (Histone deacetylase 8): > 10000 nM

Compound: C/C=C1\NC(=O)c2csc(n2)CNC(=O)C[C@@H](/C=C/CCSC(C)=O)OC(=O)[C@H](C(C)C)NC1=O
- IC50 (Histone deacetylase 2): 328 nM
- IC50 [1]: 751 nM
- IC50 (Histone deacetylase 7): > 10000 nM
- IC50 (Histone deacetylase 11): > 10000 nM
- IC50 (Histone deacetylase 3): 73 nM
- GI50 (DU-145): 11 nM
- GI50 at 72 h [2]: 321 nM
- GI50 [3]: 7.22 nM
- GI50 (U-937): 10.5 nM
- IC50 (Histone deacetylase 9): > 10000 nM
- IC50 (Histone deacetylase 1): 21.6 nM
- selectivity ratio (in vitro): 0.034
- GI50 at 72 h [4]: 258 nM
- IC50 (Histone deacetylase 5): > 10000 nM
- IC50 (Histone deacetylase 8): > 10000 nM

Compound: C/C=C1\NC(=O)c2csc(n2)[C@@H](C(C)C)NC(=O)C[C@@H](/C=C/CCS)OC(=O)[C@H](C(C)C)NC1=O
- IC50 (Histone deacetylase 2): 36.6 nM
- IC50 [1]: 138 nM
- IC50 (Histone deacetylase 7): > 10000 nM
- IC50 (Histone deacetylase 11): > 10000 nM
- IC50 (Histone deacetylase 3): 9.77 nM
- IC50 (Histone deacetylase 9): > 10000 nM
- IC50 (Histone deacetylase 1): 2.18 nM
- IC50 (Histone deacetylase 5): > 10000 nM
- IC50 (Histone deacetylase 8): 2550 nM

Compound: C/C=C1\NC(=O)c2csc(n2)CNC(=O)C[C@@H](/C=C/CCS)OC(=O)[C@H](C(C)C)NC1=O
- IC50 (Histone deacetylase 2): 45 nM
- IC50 [1]: 37.4 nM
- IC50 (Histone deacetylase 7): > 10000 nM
- IC50 (Histone deacetylase 11): > 10000 nM
- IC50 (Histone deacetylase 3): 7.67 nM
- IC50 (Histone deacetylase 9): > 10000 nM
- IC50 (Histone deacetylase 1): 2.78 nM
- IC50 (Histone deacetylase 5): > 10000 nM
- IC50 (Histone deacetylase 8): 3550 nM

Compound: C/C=C1\NC(=O)c2csc(n2)CNC(=O)C[C@@H](/C=C/CCSC(=O)CCCCCCC)OC(=O)[C@H](C(C)C)NC1=O
- IC50 (Histone deacetylase 2): 2710 nM
- IC50 [1]: 1930 nM
- IC50 (Histone deacetylase 7): > 10000 nM
- IC50 (Histone deacetylase 11): > 10000 nM
- IC50 (Histone deacetylase 3): 1680 nM
- GI50 (DU-145): 6.99 nM
- GI50 at 72 h [2]: 312 nM
- GI50 [3]: 5.87 nM
- GI50 (U-937): 6.59 nM
- IC50 (Histone deacetylase 9): > 10000 nM
- IC50 (Histone deacetylase 1): 158 nM
- selectivity ratio (in vitro): 0.022
- GI50 at 72 h [4]: 157 nM
- IC50 (Histone deacetylase 5): > 10000 nM
- IC50 (Histone deacetylase 8): > 10000 nM

Reference: ChEMBL document CHEMBL3621100, “Discovery of Novel Class I Histone Deacetylase Inhibitors with Promising in Vitro and in Vivo Antitumor Activities” (J Med Chem, 2015)
